IC50 data for 47 compounds are collected here from US11744824B2, “2-amino-3-carbonyl imidazopyridine and pyrazolopyridine compounds” (1ST Biotherapeutics, Inc., priority 2020, dated 2023).

The structures appear in SMILES notation.

Chain of GST-tagged recombinant human RIP2 (O43353 whole entry): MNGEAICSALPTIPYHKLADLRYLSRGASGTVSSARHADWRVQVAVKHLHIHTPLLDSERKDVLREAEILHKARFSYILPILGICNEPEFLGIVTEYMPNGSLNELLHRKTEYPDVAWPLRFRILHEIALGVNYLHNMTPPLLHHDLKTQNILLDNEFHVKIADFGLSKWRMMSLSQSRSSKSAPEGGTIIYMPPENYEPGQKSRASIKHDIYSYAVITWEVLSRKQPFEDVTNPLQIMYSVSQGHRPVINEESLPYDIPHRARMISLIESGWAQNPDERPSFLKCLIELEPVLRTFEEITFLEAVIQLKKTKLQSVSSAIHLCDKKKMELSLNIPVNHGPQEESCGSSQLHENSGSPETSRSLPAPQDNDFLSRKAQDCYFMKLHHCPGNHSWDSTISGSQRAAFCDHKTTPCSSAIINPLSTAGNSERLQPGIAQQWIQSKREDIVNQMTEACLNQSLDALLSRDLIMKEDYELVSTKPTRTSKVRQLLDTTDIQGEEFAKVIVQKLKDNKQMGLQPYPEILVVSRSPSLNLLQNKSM

For this test, the target named is GST-tagged recombinant human RIP2 (Homo sapiens (Human), UniProt O43353). The test is described as follows: RIP2 Kinase Assay (ADP-Glo). It is filed as biochemical. Conditions: in vitro kinase activity, ATP 25 μM. The procedure:
GST-tagged recombinant human RIP2 (25 ng) is incubated with 5 μL of compounds (0.5% DMSO), 5 μL of MBP (0.5 μg/μl) and 5 μL of ATP (25 μM) in buffer (40 mM Tris, 7.5; 20 mM MgCl2; 0.1 mg/ml BSA; 50 μM DTT). The assay was started by incubating the reaction mixture in a 96-well plate at 30° C. for 60 minutes. After the incubation, 25 μL ADP-Glo reagent was added, and the reaction was incubated at 30° C. for 40 minutes to stop the reaction and degrade residual ATP. The ADP product was then converted to ATP by adding 50 μL per well of detection reagent. Luminescence was detected after 30 minutes room temperature incubation with the Molecular device I3X plate reader. The IC50 values were calculated from a series of percent inhibition values determined at a range of inhibitor concentration using software routines as implemented in the GraphPad Prism 7 software and SigmaPlot 13.0.
Consider `Nc1nc2ccc(Br)cn2c1C(=O)C1CC1` [Example 1, (2-amino-6-bromoimidazo[1,2-a]pyridin-3-yl)(cyclopropyl)methanone], for which the concentration for half-maximal inhibition (IC50) was above 1 µM.
Consider `Cc1ccncc1-c1ccc2nc(N)c(C(=O)C3CC3)n2c1` [Example 2], for which the IC50 was 0.101 to 0.5 µM.
The figure for `Nc1nc2ccc(Br)cn2c1C(=O)[C@@H]1C[C@@H]1F` [Example 4] is above 1 µM.
As for `CC(=O)c1c(N)nc2ccc(-c3cccc(F)c3C)cn12` [Example 6, 1-(2-amino-6-(3-fluoro-2-methylphenyl)imidazo[1,2-a]pyridin-3-yl)ethan-1-one], the concentration for half-maximal inhibition (IC50) lay in the range of 0.101 to 0.5 µM.
The figure for `Cc1cc(F)ccc1-c1ccc2nc(N)c(C(=O)[C@@H]3C[C@@H]3F)n2c1` [Example 7] is 0.101 to 0.5 µM.
Regarding `Nc1nc2ccc(-c3cccs3)cn2c1C(=O)[C@@H]1C[C@@H]1F` [Example 8], the half-maximal inhibitory concentration (IC50) lay within 0.101 to 0.5 µM.
Take `Nc1nc2ccc(-c3cccc(F)c3C(F)(F)F)cn2c1C(=O)[C@@H]1C[C@@H]1F` [Example 10]: the IC50 is above 1 µM.
With `Cc1cccc(-c2ccc3nc(N)c(C(=O)[C@@H]4C[C@@H]4F)n3c2)c1C` [Example 11], the IC50 lay in the range of 0.001 to 0.1 µM.
With `Cc1c(F)cccc1-c1ccc2nc(N)c(C(=O)c3ccccn3)n2c1` [Example 12], the IC50 fell in the range of 0.001 to 0.1 µM.
As to `Cc1c(F)cccc1-c1ccc2nc(N)c(C(=O)c3ccccc3)n2c1` [Example 13], the IC50 was 0.101 to 0.5 µM.
On to `Cc1c(F)cccc1-c1ccc2nc(N)c(C(=O)C3CC3)n2c1` [Example 14], for which the IC50 lay within 0.001 to 0.1 µM.
For `Cc1ccc(F)cc1-c1ccc2nc(N)c(C(=O)[C@@H]3C[C@@H]3F)n2c1` [Example 15], the IC50 fell in the range of 0.001 to 0.1 µM.
As to `Cc1ccc(C)c(-c2ccc3nc(N)c(C(=O)[C@@H]4C[C@@H]4F)n3c2)c1` [Example 16], the IC50 fell in the range of 0.101 to 0.5 µM.
Consider `Cc1ccc(-c2ccc3nc(N)c(C(=O)[C@@H]4C[C@@H]4F)n3c2)c(C)c1` [Example 17], for which the IC50 lay in the range of 0.101 to 0.5 µM.
For `Cc1cccc(F)c1-c1ccc2nc(N)c(C(=O)[C@@H]3C[C@@H]3F)n2c1` [Example 18], the IC50 is 0.101 to 0.5 µM.
The result for `Cc1c(-c2ccc3nc(N)c(C(=O)[C@@H]4C[C@@H]4F)n3c2)cccc1C(F)(F)F` [Example 19] reads 0.101 to 0.5 µM; that for `Cc1c(F)cccc1-c1ccc2nc(N)c(C(=O)C3CCC3)n2c1` [Example 20], 0.101 to 0.5 µM.
Turning to `Cc1c(F)cccc1-c1ccc2nc(N)c(C(=O)c3cnn(C)c3)n2c1` [Example 21], the IC50 fell in the range of 0.101 to 0.5 µM.
Consider `Cc1c(F)cccc1-c1ccc2nc(N)c(C(=O)C(C)(C)C)n2c1` [Example 22], for which the IC50 is 0.101 to 0.5 µM.
As for `CCCCC(=O)c1c(N)nc2ccc(-c3cccc(F)c3C)cn12` [Example 23], the IC50 fell in the range of 0.501 to 1 µM.
As for `Cc1c(F)cccc1-c1ccc2nc(NCCN(C)C)c(C(=O)[C@@H]3C[C@@H]3F)n2c1` [Example 24, (2-((2-(dimethylamino)ethyl)amino)-6-(3-fluoro-2-methylphenyl)imidazo[1,2-a]pyridin-3-yl)((1S,2S)-2-fluorocyclopropyl)methanone], the IC50 was above 1 µM.
`Cc1cc(F)ccc1-c1ccc2nc(N)c(C(=O)[C@H]3C[C@@H]3F)n2c1` [Example 25]: the IC50 fell in the range of 0.101 to 0.5 µM.
Consider `Cc1cccc(F)c1-c1ccc2nc(N)c(C(=O)[C@H]3C[C@@H]3F)n2c1` [Example 26], for which the IC50 lay within 0.101 to 0.5 µM.
Take `Nc1nc2ccc(-c3ccco3)cn2c1C(=O)[C@@H]1C[C@@H]1F` [Example 27]: the IC50 was above 1 µM.
For `Cc1scnc1-c1ccc2nc(N)c(C(=O)[C@@H]3C[C@@H]3F)n2c1` [Example 28, (2-amino-6-(5-methylthiazol-4-yl)imidazo[1,2-a]pyridin-3-yl)((1S,2S)-2-fluorocyclopropyl)methanone], the half-inhibitory concentration (IC50) lay in the range of 0.101 to 0.5 µM.
Take `Cc1ccsc1-c1ccc2nc(N)c(C(=O)[C@@H]3C[C@@H]3F)n2c1` [Example 29]: the IC50 lay within 0.101 to 0.5 µM.
`Nc1nc2ccc(-c3cncs3)cn2c1C(=O)[C@@H]1C[C@@H]1F` [Example 30]: the IC50 was above 1 µM.
The result for `Cc1c(-c2ccc3nc(N)c(C(=O)[C@@H]4C[C@@H]4F)n3c2)ccc(F)c1F` [Example 31] reads 0.101 to 0.5 µM; that for `CC(=O)Nc1nc2ccc(-c3cccc(F)c3C)cn2c1C(C)=O` [Example 33, N-(3-acetyl-6-(3-fluoro-2-methylphenyl)imidazo[1,2-a]pyridin-2-yl)acetamide], above 1 µM.
On to `Nc1nc2ccc(-c3ccccc3Cl)cn2c1C(=O)[C@@H]1C[C@@H]1F` [Example 34], for which the half-inhibitory concentration (IC50) fell in the range of 0.101 to 0.5 µM.
The figure for `Cc1c(F)cccc1-c1ccc2nc(N)c(C(=O)[C@H]3C[C@H]3F)n2c1` [Example 35] is 0.101 to 0.5 µM; for `Cc1c(F)cccc1-c1ccc2nc(N)c(C(=O)C3CCN3C(=O)OC(C)(C)C)n2c1` (centres unmarked) [Example 36] it is above 1 µM.
The result for `CC(=O)c1c(N(C(C)=O)C(C)=O)nc2ccc(-c3cccc(F)c3C)cn12` [Example 37, N-acetyl-N-(3-acetyl-6-(3-fluoro-2-methylphenyl)imidazo[1,2-a]pyridin-2-yl)acetamide] reads above 1 µM.
With `CC(=O)c1ccc(-c2ccc3nc(N)c(C(=O)[C@@H]4C[C@@H]4F)n3c2)c(C)c1` [Example 38], the IC50 was above 1 µM.
Regarding `Nc1nc2ccc(-c3ccc(N4CCOCC4)cc3)cn2c1C(=O)[C@@H]1C[C@@H]1F` [Example 39], the 50% inhibitory concentration (IC50) is above 1 µM.
With `Cc1c(F)cccc1-c1ccc2nc(N)c(C(=O)[C@@H]3C[C@H]3F)n2c1` [Example 42], the IC50 lay in the range of 0.101 to 0.5 µM.
Take `Cc1c(F)cccc1-c1ccc2nc(N)c(C(=O)[C@H]3C[C@@H]3F)n2c1` [Example 43]: the half-inhibitory concentration (IC50) was 0.101 to 0.5 µM.
As to `Cc1ccc(C(F)(F)F)cc1-c1ccc2nc(N)c(C(=O)[C@@H]3C[C@@H]3F)n2c1` [Example 45], the IC50 fell in the range of 0.101 to 0.5 µM.
`Cc1c(F)cccc1-c1ccc2nc(N)c(C(=O)C3CC(F)(F)C3)n2c1` [Example 46]: the IC50 was in the range of 0.501 to 1 µM.
Regarding `Cc1c(F)cccc1-c1ccc2nc(N)c(C(=O)[C@@H]3CC3(F)F)n2c1` [Example 47], the half-maximal inhibitory concentration (IC50) was in the range of 0.101 to 0.5 µM.
The figure for `Cc1c(F)cccc1-c1ccc2nc(N)c(C(=O)C3CCN3)n2c1` (centres unmarked) [Example 48] is 0.101 to 0.5 µM; for `Cc1c(F)cccc1-c1ccc2nc(N)c(C(=O)C3CN(C(=O)OC(C)(C)C)C3)n2c1` [Example 49] it is above 1 µM; for `Cc1c(F)cccc1-c1ccc2nc(N)c(C(=O)C3CNC3)n2c1` [Example 50] it is 0.001 to 0.1 µM.
Turning to `Nc1nc2ccc(-c3ccc(N4CCNCC4)cc3)cn2c1C(=O)[C@@H]1C[C@@H]1F` [Example 52], the concentration for half-maximal inhibition (IC50) was in the range of 0.501 to 1 µM.
As to `CN1CCN(c2ccc(-c3ccc4nc(N)c(C(=O)[C@@H]5C[C@@H]5F)n4c3)cc2)CC1` [Example 53], the half-inhibitory concentration (IC50) is 0.101 to 0.5 µM.
With `CNc1nc2ccc(-c3cccc(F)c3C)cn2c1C(=O)[C@@H]1C[C@@H]1F` [Example 54, (6-(3-fluoro-2-methylphenyl)-2-(methylamino)imidazo[1,2-a]pyridin-3-yl)((1S,2S)-2-fluorocyclopropyl)methanone], the IC50 was above 1 µM.
Consider `Cc1c(F)cccc1-c1ccc2nc(N(C)C)c(C(=O)[C@H]3C[C@@H]3F)n2c1` [Example 55, (2-(dimethylamino)-6-(3-fluoro-2-methylphenyl)imidazo[1,2-a]pyridin-3-yl)((1R,2S)-2-fluorocyclopropyl)methanone], for which the IC50 was above 1 µM.
